Laboratory results from publication PMC12090182, “Repurposing of the RIPK1-Selective Benzo[1,4]oxazepin-4-one Scaffold for the Development of a Type III LIMK1/2 Inhibitor” (ACS Chemical Biology, 2025).

Tests used:
Type in all cases: cell-based
Settings in all cases: HEK-293T; 1 μM inhibitor, HEK293T cells
AURKC = AURKC (Homo sapiens, UniProt Q9UQB9)
How it was run: (§1)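 HEK293T cells reverse-transfected with K192 kinase-NanoLuc vectors (FuGene HD) and expressed for 20 h. Tracer K10 added at kit-recommended concentrations, inhibitor at 1 μM in alternate wells. Filtered luminescence read at 450 nm donor and 610 nm acceptor; occupancy calculated per kinase.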

AXL = AXL (Homo sapiens, UniProt P30530)
How it was run: as §1

BRSK1 = BRSK1 (Homo sapiens, UniProt Q8TDC3)
How it was run: as §1

BTK = target: T1, BTK (Homo sapiens, UniProt Q06187)
T1 construct: full-length LIMK1/2, RIPK1, BTK, and LRRK2 cloned in a frame in a NanoLuc-vector (Promega); host or cells: HEK293T
How it was run: as §1

CDK2 = CDK2 (Homo sapiens, UniProt P24941)
How it was run: as §1

CDKL1 = CDKL1 (Homo sapiens, UniProt Q00532)
How it was run: as §1

CDKL2 = CDKL2 (Homo sapiens, UniProt Q92772)
How it was run: as §1

CSNK1G2 = CSNK1G2 (Homo sapiens, UniProt P78368)
How it was run: as §1

EPHB4 = EPHB4 (Homo sapiens, UniProt P54760)
How it was run: as §1

HIPK4 = HIPK4 (Homo sapiens, UniProt Q8NE63)
How it was run: as §1

IGF1R = IGF1R (Homo sapiens, UniProt P08069)
How it was run: as §1

IRAK3 = IRAK3 (Homo sapiens, UniProt Q9Y616)
How it was run: as §1

ITK = ITK (Homo sapiens, UniProt Q08881)
How it was run: as §1

LATS2 = LATS2 (Homo sapiens, UniProt Q9NRM7)
How it was run: as §1

MAP3K4 = MAP3K4 (Homo sapiens, UniProt Q9Y6R4)
How it was run: as §1

MAPK11 = MAPK11 (Homo sapiens, UniProt Q15759)
How it was run: as §1

MAPK14 = MAPK14 (Homo sapiens, UniProt Q16539)
How it was run: as §1

MAPK4 = MAPK4 (Homo sapiens, UniProt P31152)
How it was run: as §1

MARK4 = MARK4 (Homo sapiens, UniProt Q96L34)
How it was run: as §1

NEK2 = NEK2 (Homo sapiens, UniProt P51955)
How it was run: as §1

NTRK1 = NTRK1 (Homo sapiens, UniProt P04629)
How it was run: as §1

PLK3 = PLK3 (Homo sapiens, UniProt Q9H4B4)
How it was run: as §1

PLK4 = PLK4 (Homo sapiens, UniProt O00444)
How it was run: as §1

PRKAA1 = PRKAA1 (Homo sapiens, UniProt Q13131)
How it was run: as §1

PTK6 = PTK6 (Homo sapiens, UniProt Q13882)
How it was run: as §1

SBK3 = SBK3 (Homo sapiens, UniProt P0C264)
How it was run: as §1

SNF1LK2 = SNF1LK2 (Homo sapiens, UniProt Q9H0K1)
How it was run: as §1

STK17B = STK17B (Homo sapiens, UniProt O94768)
How it was run: as §1

STK3 = STK3 (Homo sapiens, UniProt Q13188)
How it was run: as §1

STK33 = STK33 (Homo sapiens, UniProt Q9BYT3)
How it was run: as §1

STK36 = STK36 (Homo sapiens, UniProt Q9NRP7)
How it was run: as §1

TIE1 = TIE1 (Homo sapiens, UniProt P35590)
How it was run: as §1

TLK1 = TLK1 (Homo sapiens, UniProt Q9UKI8)
How it was run: as §1

TNK2(iso1) = TNK2(iso1) (Homo sapiens, UniProt Q07912)
How it was run: as §1

ULK2 = ULK2 (Homo sapiens, UniProt Q8IYT8)
How it was run: as §1

WEE1 = WEE1 (Homo sapiens, UniProt P30291)
How it was run: as §1

Sequence of WEE1 (P30291 whole entry): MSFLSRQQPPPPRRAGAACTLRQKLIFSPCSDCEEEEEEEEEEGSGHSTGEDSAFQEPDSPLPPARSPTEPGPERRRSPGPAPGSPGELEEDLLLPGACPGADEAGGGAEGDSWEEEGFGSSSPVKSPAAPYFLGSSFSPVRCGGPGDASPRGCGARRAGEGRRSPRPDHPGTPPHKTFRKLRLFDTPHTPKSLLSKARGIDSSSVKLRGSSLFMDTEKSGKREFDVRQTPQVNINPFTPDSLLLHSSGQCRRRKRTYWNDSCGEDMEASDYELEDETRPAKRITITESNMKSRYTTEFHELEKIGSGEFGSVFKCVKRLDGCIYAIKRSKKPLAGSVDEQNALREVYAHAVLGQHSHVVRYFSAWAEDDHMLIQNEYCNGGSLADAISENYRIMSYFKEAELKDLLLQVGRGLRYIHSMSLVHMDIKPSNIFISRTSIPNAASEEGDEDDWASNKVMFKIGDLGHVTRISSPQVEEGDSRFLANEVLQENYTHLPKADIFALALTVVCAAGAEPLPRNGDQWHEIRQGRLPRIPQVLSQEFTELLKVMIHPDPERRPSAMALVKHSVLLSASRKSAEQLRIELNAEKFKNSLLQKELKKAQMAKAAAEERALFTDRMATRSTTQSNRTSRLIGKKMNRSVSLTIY
Sequence of STK33 (Q9BYT3 whole entry): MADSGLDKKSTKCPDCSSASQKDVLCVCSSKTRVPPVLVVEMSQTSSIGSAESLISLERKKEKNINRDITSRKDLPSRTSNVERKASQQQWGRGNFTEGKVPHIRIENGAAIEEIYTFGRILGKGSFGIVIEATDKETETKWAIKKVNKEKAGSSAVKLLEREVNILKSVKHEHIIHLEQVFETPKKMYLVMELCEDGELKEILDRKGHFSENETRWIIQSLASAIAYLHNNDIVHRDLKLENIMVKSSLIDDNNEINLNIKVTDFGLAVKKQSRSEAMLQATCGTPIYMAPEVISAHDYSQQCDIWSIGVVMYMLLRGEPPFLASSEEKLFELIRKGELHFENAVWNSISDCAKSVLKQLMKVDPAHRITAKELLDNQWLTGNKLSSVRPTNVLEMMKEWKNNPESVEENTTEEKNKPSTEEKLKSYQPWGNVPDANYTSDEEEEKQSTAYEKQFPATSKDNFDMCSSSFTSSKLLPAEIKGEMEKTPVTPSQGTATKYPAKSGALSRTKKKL
Sequence of MAPK14 (Q16539 whole entry): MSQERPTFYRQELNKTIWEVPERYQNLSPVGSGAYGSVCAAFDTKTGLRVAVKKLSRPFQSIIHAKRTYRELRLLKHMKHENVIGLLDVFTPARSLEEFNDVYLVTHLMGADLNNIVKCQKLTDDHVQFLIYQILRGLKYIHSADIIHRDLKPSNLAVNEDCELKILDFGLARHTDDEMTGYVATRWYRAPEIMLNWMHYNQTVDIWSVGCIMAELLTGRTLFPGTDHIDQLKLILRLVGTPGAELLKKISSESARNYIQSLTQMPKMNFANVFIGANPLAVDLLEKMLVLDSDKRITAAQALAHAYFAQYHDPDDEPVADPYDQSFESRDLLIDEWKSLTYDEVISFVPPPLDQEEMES
Sequence of IRAK3 (Q9Y616 whole entry): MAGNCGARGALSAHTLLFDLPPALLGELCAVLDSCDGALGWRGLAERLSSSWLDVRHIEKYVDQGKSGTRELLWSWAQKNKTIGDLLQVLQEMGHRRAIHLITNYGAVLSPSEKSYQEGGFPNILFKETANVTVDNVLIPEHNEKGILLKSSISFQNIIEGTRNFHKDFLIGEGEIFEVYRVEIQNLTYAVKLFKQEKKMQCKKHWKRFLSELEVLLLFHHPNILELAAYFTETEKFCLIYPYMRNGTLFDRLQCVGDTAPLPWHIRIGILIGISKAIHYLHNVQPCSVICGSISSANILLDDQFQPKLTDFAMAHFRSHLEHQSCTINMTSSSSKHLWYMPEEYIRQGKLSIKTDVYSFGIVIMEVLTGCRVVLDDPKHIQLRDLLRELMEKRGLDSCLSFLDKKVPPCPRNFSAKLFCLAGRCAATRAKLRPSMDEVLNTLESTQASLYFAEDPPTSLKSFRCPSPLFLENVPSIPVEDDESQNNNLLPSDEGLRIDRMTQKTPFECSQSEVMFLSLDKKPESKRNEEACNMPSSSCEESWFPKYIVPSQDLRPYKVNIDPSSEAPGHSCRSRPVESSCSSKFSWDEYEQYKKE
Sequence of MARK4 (Q96L34 whole entry): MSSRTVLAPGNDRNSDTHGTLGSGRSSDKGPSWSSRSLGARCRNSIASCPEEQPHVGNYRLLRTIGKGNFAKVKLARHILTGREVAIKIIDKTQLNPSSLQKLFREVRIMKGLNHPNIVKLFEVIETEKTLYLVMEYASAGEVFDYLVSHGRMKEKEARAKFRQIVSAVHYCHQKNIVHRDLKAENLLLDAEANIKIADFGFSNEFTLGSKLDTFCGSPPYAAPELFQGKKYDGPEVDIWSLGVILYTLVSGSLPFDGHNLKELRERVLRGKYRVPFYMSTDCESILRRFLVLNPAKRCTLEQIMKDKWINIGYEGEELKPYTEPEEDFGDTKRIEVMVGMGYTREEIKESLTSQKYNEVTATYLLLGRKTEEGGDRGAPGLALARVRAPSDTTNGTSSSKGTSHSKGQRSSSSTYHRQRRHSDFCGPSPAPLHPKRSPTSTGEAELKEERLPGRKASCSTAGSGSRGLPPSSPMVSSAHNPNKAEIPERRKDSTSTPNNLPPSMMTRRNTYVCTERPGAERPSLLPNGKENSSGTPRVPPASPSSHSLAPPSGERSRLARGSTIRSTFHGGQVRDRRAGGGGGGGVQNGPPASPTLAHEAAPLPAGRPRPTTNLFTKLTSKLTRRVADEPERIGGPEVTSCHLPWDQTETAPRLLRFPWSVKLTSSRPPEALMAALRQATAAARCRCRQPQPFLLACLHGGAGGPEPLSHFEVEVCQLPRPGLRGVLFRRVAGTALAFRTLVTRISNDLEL
Sequence of NEK2 (P51955 whole entry): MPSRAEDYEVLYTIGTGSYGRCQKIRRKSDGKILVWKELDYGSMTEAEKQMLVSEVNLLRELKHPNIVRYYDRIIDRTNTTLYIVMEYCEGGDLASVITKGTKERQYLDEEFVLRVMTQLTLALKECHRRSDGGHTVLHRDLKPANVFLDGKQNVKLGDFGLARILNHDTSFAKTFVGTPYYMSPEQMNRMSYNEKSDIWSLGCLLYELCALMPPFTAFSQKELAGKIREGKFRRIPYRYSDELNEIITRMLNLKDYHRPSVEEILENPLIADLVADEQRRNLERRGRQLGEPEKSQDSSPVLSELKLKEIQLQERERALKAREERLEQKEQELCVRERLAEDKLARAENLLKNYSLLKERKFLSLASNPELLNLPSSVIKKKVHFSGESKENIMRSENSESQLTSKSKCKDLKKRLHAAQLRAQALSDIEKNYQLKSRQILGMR
Sequence of CDKL2 (Q92772 whole entry): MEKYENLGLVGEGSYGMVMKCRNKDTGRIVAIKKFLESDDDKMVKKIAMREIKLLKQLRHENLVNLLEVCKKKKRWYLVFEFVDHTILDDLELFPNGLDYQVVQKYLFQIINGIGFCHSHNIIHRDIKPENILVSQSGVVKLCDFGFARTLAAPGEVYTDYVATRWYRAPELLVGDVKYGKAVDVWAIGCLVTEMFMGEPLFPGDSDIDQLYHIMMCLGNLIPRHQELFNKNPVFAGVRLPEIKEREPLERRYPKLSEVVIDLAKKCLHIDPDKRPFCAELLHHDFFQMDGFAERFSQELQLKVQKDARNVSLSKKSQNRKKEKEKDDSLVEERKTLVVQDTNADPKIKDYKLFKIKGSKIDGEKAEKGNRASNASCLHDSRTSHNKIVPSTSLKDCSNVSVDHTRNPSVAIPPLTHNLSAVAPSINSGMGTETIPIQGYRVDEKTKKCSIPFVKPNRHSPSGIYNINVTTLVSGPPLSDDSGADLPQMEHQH
Sequence of BRSK1 (Q8TDC3 whole entry): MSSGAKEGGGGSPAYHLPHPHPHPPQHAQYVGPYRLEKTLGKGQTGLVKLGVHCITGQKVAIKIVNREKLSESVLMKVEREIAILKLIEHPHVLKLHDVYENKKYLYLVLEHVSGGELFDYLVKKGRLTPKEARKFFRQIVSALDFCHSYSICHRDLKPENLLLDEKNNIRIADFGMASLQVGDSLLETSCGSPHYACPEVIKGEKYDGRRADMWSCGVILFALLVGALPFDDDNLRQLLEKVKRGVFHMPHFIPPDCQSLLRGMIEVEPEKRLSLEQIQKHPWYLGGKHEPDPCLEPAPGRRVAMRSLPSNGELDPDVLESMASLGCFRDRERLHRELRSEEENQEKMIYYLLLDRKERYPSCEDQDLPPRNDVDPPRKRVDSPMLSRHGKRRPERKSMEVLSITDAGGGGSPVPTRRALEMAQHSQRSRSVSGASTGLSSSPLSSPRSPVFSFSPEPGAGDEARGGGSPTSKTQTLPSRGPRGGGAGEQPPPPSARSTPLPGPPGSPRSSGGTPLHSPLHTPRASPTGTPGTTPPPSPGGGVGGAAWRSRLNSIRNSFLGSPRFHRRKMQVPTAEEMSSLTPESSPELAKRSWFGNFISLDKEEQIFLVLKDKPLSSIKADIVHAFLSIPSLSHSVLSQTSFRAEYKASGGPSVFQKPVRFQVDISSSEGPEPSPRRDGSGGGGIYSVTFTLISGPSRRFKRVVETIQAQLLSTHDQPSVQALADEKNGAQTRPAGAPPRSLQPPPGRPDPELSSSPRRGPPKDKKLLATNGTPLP
Sequence of STK17B (O94768 whole entry): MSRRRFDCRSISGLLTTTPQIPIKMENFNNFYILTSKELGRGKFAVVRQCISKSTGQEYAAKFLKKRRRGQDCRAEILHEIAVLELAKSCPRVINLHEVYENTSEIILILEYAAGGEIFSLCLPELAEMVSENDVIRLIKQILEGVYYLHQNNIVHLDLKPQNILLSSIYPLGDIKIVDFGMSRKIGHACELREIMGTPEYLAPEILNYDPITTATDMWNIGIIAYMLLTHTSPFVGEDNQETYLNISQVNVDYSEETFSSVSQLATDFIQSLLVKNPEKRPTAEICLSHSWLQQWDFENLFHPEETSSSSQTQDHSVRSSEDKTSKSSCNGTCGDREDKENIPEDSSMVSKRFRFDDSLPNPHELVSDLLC

SMILES: CN1C(=O)[C@@H](N2CCc3c(nn(Cc4ccccc4)c3C(N)=O)C2=O)COc2cc(Cl)ccc21 [Compound 10, (S)-2-benzyl-6-(8-chloro-5-methyl-4-oxo-2,3,4,5-tetrahydrobenzo[b][1,4]oxazepin-3-yl)-7-oxo-4,5,6,7-tetrahydro-2H-pyrazolo[3,4-c]pyridine-3-carboxamide]
- receptor occupancy at 1 µM (AURKC): 5.08%
- receptor occupancy at 1 µM (AXL): 2.28%
- receptor occupancy at 1 µM (BRSK1): 3.37%
- receptor occupancy at 1 µM (BTK): -8.22%
- receptor occupancy at 1 µM (CDK2): 6.33%
- receptor occupancy at 1 µM (CDKL1): 12.6%
- receptor occupancy at 1 µM (CDKL2): -3.58%
- receptor occupancy at 1 µM (CSNK1G2): 3.57%
- receptor occupancy at 1 µM (EPHB4): 4.16%
- receptor occupancy at 1 µM (HIPK4): 1.53%
- receptor occupancy at 1 µM (IGF1R): -7.01%
- receptor occupancy at 1 µM (IRAK3): -5.37%
- receptor occupancy at 1 µM (ITK): 2.24%
- receptor occupancy at 1 µM (LATS2): 8.35%
- receptor occupancy at 1 µM (MAP3K4): 5.69%
- receptor occupancy at 1 µM (MAPK11): -1.99%
- receptor occupancy at 1 µM (MAPK14): 4.38%
- receptor occupancy at 1 µM (MAPK4): -10.7%
- receptor occupancy at 1 µM (MARK4): 8.31%
- receptor occupancy at 1 µM (NEK2): -8.89%
- receptor occupancy at 1 µM (NTRK1): 0.821%
- receptor occupancy at 1 µM (PLK3): 2.41%
- receptor occupancy at 1 µM (PLK4): 10.7%
- receptor occupancy at 1 µM (PRKAA1): -3.79%
- receptor occupancy at 1 µM (PTK6): 2.55%
- receptor occupancy at 1 µM (SBK3): -4.46%
- receptor occupancy at 1 µM (SNF1LK2): 4.84%
- receptor occupancy at 1 µM (STK17B): 8%
- receptor occupancy at 1 µM (STK3): -10.1%
- receptor occupancy at 1 µM (STK33): 3.58%
- receptor occupancy at 1 µM (STK36): -3.44%
- receptor occupancy at 1 µM (TIE1): -1.51%
- receptor occupancy at 1 µM (TLK1): 26.6%
- receptor occupancy at 1 µM (TNK2(iso1)): 4.21%
- receptor occupancy at 1 µM (ULK2): 2.12%
- receptor occupancy at 1 µM (WEE1): -7.33%
